From patent publication US20090074676A1, “Inhibition of p38 MAPK For Treatment Of Obesity” (SMITHKLINE BEECHAM CORPORATION, priority 2005, published 2009)
Entries after “also recorded” stand apart in the source; their conditions may differ.

Columns and labels:
3T3-L1 adipocytes = details: by reducing GLUT4 activity; cited from earlier work
[1] = tested on: diet-induced obese (DIO) AKR mice; experiment: Experiment 1: four weeks treatment of 18-19 weeks old male DIO AKR mice on high fat diet (body weight, body composition, glucose, ITT); format: in vivo
Protocol: Compound 2 was administered for four weeks treatment in 18-19 weeks old male, diet-induced obese (DIO) AKR mice. Methods: Male AKR mice, from Jackson Laboratories, group housed, 18-19 weeks old, on high fat diet (HFD, D12331 rodent diet, 58 kcal % from fat and sucrose. Research Diets, Inc., New Brunswick, N.J.) started at 4-5 weeks old. A parallel group of mice on normal diet (ND, Purina 5001) was served as diet control. During the last 4 weeks of diet period, mice on HFD were treated with vehicle (0.5% tragacanth in 0.03N HCl), Compound 2 was administered at 3 mg/kg, and 10 mg/kg, and water (control for vehicle), twice daily (BID), orally (PO) at 10 ml/kg. Mice on normal diet (ND) were treated with vehicle. Mouse number in each group was 7-10. Body weight (BW) was monitored once a week. Body composition was monitored every other week by using EchoMRI™ Whole Body Composition Analyzer (Echo Medical Systems, Houston, Tex.). Fasting blood glucose was measured at 2 weeks of treatment. Postprandial blood glucose was measured at before and end of treatment. Fasting serum insulin was measured at dosing 2 weeks via orbital bleeding. Serum IL-6 was measured at the end of treatment under fasting condition. Insulin tolerance test (ITT) was also performed at end of the diet period.

DIO AKR mice = experiment: Experiment 2: two week treatment of 24-25 weeks old male DIO AKR mice on high fat diet; format: in vivo; details: 10 & 30 mg/kg, PO, BID
Protocol: Compound 2 was administered for a two week treatment in 24-25 weeks old male DIO AKR mice (older). Methods: Male AKR mice, from Jackson Laboratories, group housed, 24-25 weeks old, on high fat diet (HFD, D12331 rodent diet, 58 kcal % from fat and sucrose. Research Diets, Inc., New Brunswick, N.J.) started at 4-5 weeks old. A parallel group of mice on normal diet (ND, Purina 5001) was served as diet control. During the last 2 weeks of diet period, mice on HFD were treated with vehicle (0.5% tragacanth in 0.03N HCl), Compound 2 administered at 10, and 30 mg/kg, BID, PO (10 ml/kg). Mice on ND were treated with vehicle. Mouse number in each group was 7-10. Body weight (BW), body composition, postprandial blood glucose, and fasting serum insulin were measured.

DIO C57BL/6 mice = experiment: Experiment 3: four weeks treatment of male DIO C57BL/6 mice on high fat diet (body weight, body composition, glucose); format: in vivo; details: PO, BID, 4 weeks
Protocol: Methods: Male C57BL/6 mice, from Jackson Laboratories, group housed, 18-19 weeks old, on high fat diet (HFD, D12331 rodent diet, 58 kcal % from fat and sucrose. Research Diets, Inc., New Brunswick, N.J.) started at 4-5 weeks old. A parallel group of mice on normal diet (ND, Purina 5001) was served as diet control. During the last 4 weeks of diet period, mice on HFD were treated with vehicle (0.5% tragacanth in 0.03N HCl), Compound 2 administered at 3, 10, and 30 mg/kg, BID, PO (10 ml/kg). Mice on ND were treated with vehicle. Mouse number in each group was 8-10. Body weight (BW), body composition, fasting blood glucose, postprandial blood glucose and insulin were measured. […] Epididymal fat pad was collected to determine PPARγ and GLUT4 gene expression.

SMILES	insulin-induced glucose uptake (3T3-L1 adipocytes)	blood glucose ([1]; 3 & 10 mg/kg, PO, BID, 4 weeks)	lean mass ([1]; 3 & 10 mg/kg, PO, BID, 4 weeks)	reduction in body weight (BW) ([1]; 3 & 10 mg/kg, PO, BID, last 4 weeks of 14 weeks on HFD, p<0.05)	response to an insulin tolerance test (ITT) ([1]; end of diet period, insulin i.p. 0.75 U/kg)	blood glucose (DIO AKR mice; 2 weeks)	reduction in body weight (BW) (DIO AKR mice; last 2 weeks of 20 weeks on HFD, p<0.05)	time at which the effect on BW and fat mass appeared (DIO AKR mice; more pronounced over the 2 weeks) [days]	blood glucose (DIO C57BL/6 mice)	lean mass (DIO C57BL/6 mice)
C[S+]([O-])c1ccc(-c2nc(-c3ccc(F)cc3)c(-c3ccncc3)[nH]2)cc1 (stereo not shown) [Compound 1, 4-(4-Fluorophenyl)-2-(4-methylsulfinylphenyl)-5-(4-pyridyl)imidazole]	reduced insulin-induced glucose uptake	–	–	–	–	–	–	–	–	–
COc1nccc(-c2c(-c3ccc(F)cc3)ncn2[C@H]2CC[C@H](O)CC2)n1 [Compound 2, trans-1-(4-hydroxycyclohexyl)-4-(4-fluorophenyl)-5-[(2-methoxy)pyrimidin-4-yl]imidazole]	–	no effect; also recorded: did not have any significant effect	no effect	4-9%	did not have any significant effect	no effect; also recorded: did not have any significant effect	4-9%	4	no effect; also recorded: did not have any significant effect	no effect
